From patent US11167007B2, “FOXM1 modulators and uses thereof” (City of Hope, priority 2016, dated 2021)

Key:
Format in all cases: cell-based, murine
[1] = test system: FOXM1; assay: Western blot of FOXM1 levels in GT1-7 CARY cells; details: relative to p84 loading control, FIG. 3C
Source text: Western Blot. Cell lysates was separated on a 6% SDS page gel and transferred to a nitrocellulose membrane. The membrane was blocked for one hour in 5% skim milk dissolved in TBS-T and probed with the following antibodies ([…]): FoxM1 (rabbit, GeneTex), AR: 441 (mouse, Santa Cruz Biotechnology), β-catenin (rabbit 9562, Cell Signaling Technology), p84 (mouse, GeneTex) and actin (mouse, Santa Cruz Biotechnology). Horse radish peroxidase linked secondary antibodies were used along with ECL reagents for visualization. Western blots were quantified using Quantity One analysis software (BioRad).
It has been previously reported that thiostrepton causes decreased levels of FOXM1. Hegde et al, Nat Chem, 3(9):725-31 (2011); Gartel, Front Oncol, 3:150 (2013). […] The nuclear association between FOXM1 and β-catenin increases the transcriptional activity of both factors. Zhang et al, Cancer Cell, 20(4):427-42 (2011). β-catenin is a key AR coactivator in a variety of cells. Yang, J Biol Chem, 277(13):11336-44 (2002); Truica et al, Cancer Res, 60(17):4709-13 (2000). The inventors believed that thiostrepton could inhibit AR activity by limiting access to nuclear β-catenin via FOXM1 depletion. […] As expected, control actin protein was observed primarily in cytoplasmic fraction.

[2] = test system: AR; assay: Androgen-responsive luciferase reporter assay in C2C12 cells; details: treated overnight, FIG. 2A
Source text: Luciferase Reporter Assay. Cells were transfected using Lipofectamine Plus (Invitrogen) with a normalization plasmid (pRL-SV40, Promega) and an androgen responsive plasmid (MMTV-luciferase or PSA-luciferase) as described in Jones et al, ACS Chem Biol, 3(7):412-8 (2008), and, where indicated, with an shRNA plasmid targeting FOXM1 (adapted for mouse FOXM1 sequence targeting) a scrambled control shRNA plasmid, or ARQ24 or ARQ65 plasmids. Christensen et al, PLoS One, 8(1):e54556 (2013). The following day, cells and drugs were distributed to 96-well plates. 24 hours later, luciferase activity was assessed by a dual luciferase assay kit (Promega) on the Tecan plate reader. Samples were run in quadruplicates and a Student's t test was performed to determine significance, where p<0.05 was considered significant.
In order to identify potential cell-type selective AR modulators, the FRET-based assay of AR conformation change was utilized. AR signaling is a complex process involving many steps in addition to ligand binding. One crucial step is the ligand-induced conformational change of AR, which brings the carboxy (C)- and amino (N)-termini of the receptor together. Full length AR with cyan fluorescent protein (CFP) or yellow fluorescent protein (YFP) fused to either end (CARY) produces a FRET signal upon AR conformation change (FIG. 1A). This produces an accurate and quantifiable read-out of AR activity. Jones et al, ACS Chem Biol, 3(7):412-8 (2008). Because the interest was in the potential of neuron selective AR inhibitors for treatment of SBMA, the initial screen was carried out in CARY-transfected GT1-7 cells, which are a mouse model of hypothalamic neurons. Liposits et al, Endocrinology, 129(3):1575-83 (1991). Cells were plated in 96 wells and treated with library compounds 24 hours prior to accessing conformational changes by FRET. […] Candidate hits were then further evaluated by dose response. […] In addition to FRET, AR transcriptional activity was also assessed in several cell lines by transfecting cells with a luciferase reporter driven by the human PSA promoter. […]

[3] = test system: AR; assay: Androgen-responsive luciferase reporter assay in GT1-7 cells; details: GT1-7 cells, treated overnight, FIG. 2A
Protocol: Luciferase Reporter Assay. […] The following day, cells and drugs were distributed to 96-well plates. 24 hours later, luciferase activity was assessed by a dual luciferase assay kit (Promega) on the Tecan plate reader. Samples were run in quadruplicates and a Student's t test was performed to determine significance, where p<0.05 was considered significant.
In order to identify potential cell-type selective AR modulators, the FRET-based assay of AR conformation change was utilized. AR signaling is a complex process involving many steps in addition to ligand binding. One crucial step is the ligand-induced conformational change of AR, which brings the carboxy (C)- and amino (N)-termini of the receptor together. Full length AR with cyan fluorescent protein (CFP) or yellow fluorescent protein (YFP) fused to either end (CARY) produces a FRET signal upon AR conformation change (FIG. 1A). This produces an accurate and quantifiable read-out of AR activity. […] Cells were plated in 96 wells and treated with library compounds 24 hours prior to accessing conformational changes by FRET. […] Candidate hits were then further evaluated by dose response. […] In addition to FRET, AR transcriptional activity was also assessed in several cell lines by transfecting cells with a luciferase reporter driven by the human PSA promoter.

| Structure (SMILES) | FOXM1 levels (Western blot) [1] | inhibition of AR transcriptional activity (luciferase) [2] | inhibition of AR transcriptional activity (luciferase) [3] |
| --- | --- | --- | --- |
| C[C@]12CCC(=O)C[C@@H]1CC[C@@H]1[C@@H]2CC[C@]2(C)[C@@H](O)CC[C@@H]12 [DHT, dihydrotestosterone] | increased | – | – |
| Nc1c(C(=O)Nc2ccc(F)cc2)sc2nc(-c3cccs3)cc(C(F)(F)F)c12 [FDI-6] | – | not C2C12 cells | inhibited AR activity |
